Like-named read-outs stand apart in the source and are kept apart here.
Experiments:
[1] = MTT cytotoxicity assay in Vero cells; type: cell-based; conditions: African green monkey, Vero cells (monkey kidney), 24 h post-treatment
Description: (§1) Cytotoxicity of each compound towards cells for four selected cell lines in the range of 1 to 500 µM was evaluated using the MTT (3-(4,5-dimethylthiazol-2-yl)-2,5-diphenyltetrazolium bromide) assay at 24 h post-treatment, in parallel with control and vehicle-treated cells (0.1% dimethyl sulfoxide (DMSO)). The 50% cytotoxic concentration (CC50) values calculated from the dose-response curve (Supplementary Figures S2–S5) are shown in Table 1. Overall, a range of cytotoxicities were seen from the four compounds across the […]. The most cytotoxic combination was ZAD-1 and BHK-21 cells, while the least cytotoxic combination was andrographolide and BHK-21 cells (Table 1).
(§2) A549 cells were cultured in ninety-six-well tissue culture plates under standard conditions until the cells reached 90% confluence. The cell culture medium was removed and then cells were incubated with various concentrations of andrographolide (1–100 μM) diluted in complete medium with FBS prior to being cultured for 24 h under standard conditions before analysis using either the Vybrant MTT Cell proliferation assay kit (V13154, Invitrogen) or the alamarBlue (Thermo Fischer Scientific, Waltham, MA, USA) assay kit according to the manufacturers recommendations. Values were determined from 8 (MTT assay) or 3 (alamarBlue) independent replicates. Negative controls (only media and media with 0.1% DMSO) and positive controls (5% DMSO) were included. To determine cell number, cell cultures were trypsinized by the addition of 0.25% Trypsin/0.1% ethylelediaminetetraacetic acid (EDTA) for 3 min and then cell suspensions were diluted with 0.4% trypan blue solution. Cells were counted using a hemocytometer. Cell morphology was additionally observed under an inverted microscope after 24 h treatment with various concentrations of each compound.
Figu re S3. Cytotoxicity of ZAD -1 (A), ZA D-2 (B), ZA D-3 (C), and andro grapholide (D) to Ve r o (monkey kidney) cells. Ve r o cells were incubated with various concentrations of each compound for 24 hrs followed by MTT cell viability assay. The experiment was undertaken independently in 4 replicates. DMSO at the same concentrations was used as a control. 10% ethanol, PBS, and milli- Q water were used as a positive control of cell death. The bars show mean ± SD. […]

[2] = MTT cytotoxicity assay in HEK293T/17 cells; type: cell-based; conditions: human, HEK293T/17 cells (human embryonic kidney), 24 h post-treatment
Description: as §1, §2
Figu re S5. Cytotoxicity of ZAD -1 (A), ZA D-2 (B), ZA D-3 (C), and andro grapholide (D) to HEK293T/17 (human embryonic kidney) cells.
HEK293T/17 cells were incubated with various concentrations of each compound for 24 hrs followed by MTT cell viability assay. The experiment was undertaken independently in 4 replicates. DMSO at the same concentrations was used as a control.
10% ethanol, PBS, and milli- Q water were used as a positive control of cell death. […]

[3] = tested on: HSPA1A; assay: 2D-PAGE proteomic analysis of treated A549 cells, HSPA1A spot; type: cell-based, human; conditions: A549, 25 µM, 24 h
Description: (§3) A549 cells were therefore treated with either vehicle (0.025% DMSO), or with 25 μM of andrographolide or ZAD-1, and at 24 h post-treatment, proteins were prepared and subjected to two-dimension polyacrylamide gel electrophoresis (2D-PAGE). The experiment was undertaken independently in triplicate and representative gels are shown Figure 5, with all replicates being shown in Supplementary Figure S12. […] All of these protein spots were cut from the gels and then subjected to in-gel tryptic digestion followed by mass spectrometry. MASCOT (Matrix Science Inc., Boston, MA, USA) search of the resultant masses identified 4 proteins (Table 3), namely heat shock protein 70 kDa 1A (HSPA1A), phosphoglycerate kinase 1 (PGK1), transketolase (TKT) and nuclear transport protein of GTP-binding nuclear protein Ran (Ran).
(§4) 2D-PAGE and mass spectroscopic identification of differentially expressed spots was undertaken essentially as previously described. […] Image data were analyzed using Image Master™ 2D Platinum software version 7.0 (GenBio, Geneva, Switzerland). Each spot was evaluated on intensity, volume and area. […] After tryptic in-gel digestion, peptide masses were determined by LC-MS/MS using SYNAPT high definition MS (HDMS) (Waters Corp., Milford, MA, USA).

[4] = tested on: PGK1; assay: 2D-PAGE proteomic analysis of treated A549 cells, PGK1 spot; type: cell-based, human; conditions: A549, 25 µM, 24 h
Description: as §3, §4

[5] = tested on: Ran; assay: 2D-PAGE proteomic analysis of treated A549 cells, Ran spot; type: cell-based, human; conditions: A549, 25 µM, 24 h
Description: as §3, §4

[6] = tested on: DENV 2; parameters: method as in PMID 30396090; conditions: HepG2 cells; read-out: EC50 towards DENV 2; cited from earlier work
[7] = tested on: DENV 2; parameters: method as in PMID 30396090; conditions: HeLa cells; read-out: EC50 towards DENV 2; cited from earlier work
[8] = parameters: method as in PMID 11081986; conditions: cited from earlier work

Compound	CC50 at 24 h [1]	CC50 at 24 h [2]	Intensity Level, spot 1 HSPA1A [3]	Intensity Level, spot 3 PGK1 [4]	Intensity Level, spot 4 Ran [5]	EC50 [6]	EC50 [7]	bioavailability [8]
C=C1CC[C@@H]2[C@](C)(CO)[C@H](O)CC[C@@]2(C)[C@@H]1C/C=C1/C(=O)OC[C@H]1O [Andrographolide]	469 ± 73 µM	294 ± 96 µM	2410.2	1053.31	698.483	21.3 µM	22.7 µM	relatively poor
C=C1CC[C@@H]2[C@]3(C)COC(C)(C)O[C@@H]3CC[C@@]2(C)[C@@H]1C/C=C1/C(=O)OC[C@@H]1Oc1c(Cl)cc(Cl)c2ccc(C)nc12 [ZAD-1]	510 ± 53 µM	149 ± 40 µM	1279.25	2509.31	2096.79			
